Here are results for 8 molecules from ChEMBL document CHEMBL1201862, “PubChem BioAssay data set” (2004).

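Method: 48-hour compound exposure of cells in 96-well plates, five concentrations, linear interpolation of endpoints. GI50 is the concentration that inhibits growth by half.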 Active and inactive are the calls of the source. Cut-off read from the data, not from the text of the source: active = GI50 up to about 1.1 µM and inactive = higher. Bounds are passed on as bounds.

Holding throughout (test): inhibition of tumour cell growth, NCI panel, 48 h
For test [1], the system named is CAKI-1.
Test [2] concerns CCRF-CEM.
Test [3] deals with DU-145.
The subject of test [4] is HL-60.
Test [5] deals with HOP-62.
Test [6] relates to KM12.
Test [7] concerns MDA-MB-435.
Test [8] concerns Malme-3M.
Test [9] has as its system NCI-H226.
In test [10] the test system is NCI-H23.
In test [11] the test system is NCI-H460.
The test system of test [12] is NCI-H522.
For test [13], the system named is OVCAR-4.
The test system of test [14] is OVCAR-5.
The subject of test [15] is OVCAR-8.
In test [16] the test system is SK-MEL-2.
Test [17] relates to SK-MEL-5.
Test [18] relates to SNB-75.
Test [19] relates to UO-31.
Test [20] relates to SW-620.

On to `CC(=O)O[C@H]1CC[C@H]2[C@@H]3CC[C@H]4Nc5c(cnn5S(C)(=O)=O)C[C@]4(C)[C@H]3CC[C@]12C`, for which the GI50 was 38.1 µM (inactive) in test [1]; 7.94 µM (inactive) in test [2]; > 100 µM (inactive) in test [3]; > 100 µM (inactive) in [4]; 27.6 µM (inactive) in test [5]; > 100 µM (inactive) in test [6]. For the same molecule, the GI50 in test [7] was > 100 µM (inactive); in [8], 38.7 µM (inactive); in [9], 53.5 µM (inactive); in test [10], > 100 µM (inactive); in test [11], 68.2 µM (inactive); in [12] it was 70 µM (inactive). Further, the GI50 in [13] was 18.5 µM (inactive); in test [14], > 100 µM (inactive); in [15], 45.4 µM (inactive); in test [16] it was 61.7 µM (inactive); in test [17], 84.3 µM (inactive); in test [18], 37.2 µM (inactive). Further, the GI50 in test [19] is 88.1 µM (inactive).
Take `COC(=O)Nc1nc2cc(C(=O)c3ccc[nH]3)ccc2[nH]1`: the GI50 is 0.332 µM (active) in [1]; 0.577 µM (active) in test [2]; 1.82 µM (inactive) in test [3]; 0.0689 µM (active) in test [4]; 1.44 µM (inactive) in [5]; 0.49 µM (active) in test [6]. For the same molecule, the GI50 in [7] was 0.117 µM (active); in [8], 0.418 µM (active); in [9] it was 1.16 µM (inactive); in [10], 6.87 µM (inactive); in test [11], 0.596 µM (active); in [12], 0.402 µM (active). The GI50 in [13] is > 100 µM (inactive); in test [14], > 100 µM (inactive); in test [15], 3.18 µM (inactive); in test [16], 0.353 µM (active); in test [17], 0.282 µM (active); in test [18] it was 0.235 µM (active). Besides, the results for the GI50 in [20] and in test [19] were 0.359 µM (active) and 1.21 µM (inactive), respectively.
Take `SC1=NC2=C(CSC/C2=C\c2cccc(Br)c2)C(c2cccc(Br)c2)N1` (configuration not stated): the GI50 in test [1] was > 100 µM (inactive); in [2] it was 65.9 µM (inactive); in [3], > 100 µM (inactive); in [4] it was > 100 µM (inactive); in [5], > 100 µM (inactive); in test [6] it was 88.5 µM (inactive). Besides, the GI50 is 41.3 µM (inactive) in test [7]; > 100 µM (inactive) in [8]; > 100 µM (inactive) in test [9]; 63.4 µM (inactive) in test [10]; 55.6 µM (inactive) in test [11]; > 100 µM (inactive) in [12]. The GI50 in test [13] was 93.5 µM (inactive); in test [14], > 100 µM (inactive); in test [15] it was > 100 µM (inactive); in [16], > 100 µM (inactive); in [17], 30.3 µM (inactive); in test [18], 41.6 µM (inactive). The GI50 in test [20] is > 100 µM (inactive).
On to `CC(C)C(/C=C/c1ccc(Cl)cc1)=N\NC(=O)N/N=C(/C=C/c1ccc(Cl)cc1)C(C)C`, for which the GI50 in [1] was 18.5 µM (inactive); in [2], 46.5 µM (inactive); in [3], > 100 µM (inactive); in test [4] it was > 100 µM (inactive); in test [5], 27.9 µM (inactive); in test [6] it was > 100 µM (inactive). Further, the GI50 in test [7] was 30.1 µM (inactive); in test [8], 58.5 µM (inactive); in [9], 30.8 µM (inactive); in test [10], 21.9 µM (inactive); in test [11] it was 23 µM (inactive); in [12], > 10 µM (inactive). Also, the GI50 in [13] is 19.6 µM (inactive); in test [14] it was > 100 µM (inactive); in test [15] it was 19.4 µM (inactive); in test [16], 26.4 µM (inactive); in test [17] it was 64.6 µM (inactive); in test [18] it was 21.7 µM (inactive). In addition, the GI50 is 82 µM (inactive) in test [20] and 40.9 µM (inactive) in test [19].
Regarding `O=S1(=O)C[C@@H](NCc2ccccc2)[C@H](NCc2ccccc2)C1`, the GI50 in [1] was > 100 µM (inactive); in [2], > 100 µM (inactive); in test [3], > 100 µM (inactive); in test [5] it was 37.4 µM (inactive); in test [6], > 100 µM (inactive); in test [7], > 100 µM (inactive). Moreover, the GI50 is > 100 µM (inactive) in test [8]; > 100 µM (inactive) in [9]; > 100 µM (inactive) in test [10]; > 100 µM (inactive) in [11]; 73.6 µM (inactive) in [12]; > 100 µM (inactive) in [13]. Besides, the GI50 in test [14], in test [15], in [16], in test [17], in test [18] and in test [20] was > 100 µM (inactive) each time. In test [19], the GI50 was > 100 µM (inactive).
Consider `CN1C2CCC1C(CO)C(=O)C2` (configuration not stated), for which the GI50 in test [1] was 32.7 µM (inactive); in test [2] it was 10.2 µM (inactive); in test [3], > 100 µM (inactive); in test [4], 3.56 µM (inactive); in [5], > 100 µM (inactive); in test [6], > 100 µM (inactive). Besides, the GI50 in test [7] is > 100 µM (inactive); in test [8], 28.9 µM (inactive); in test [9], > 100 µM (inactive); in test [10], > 100 µM (inactive); in test [11] it was > 100 µM (inactive); in test [12], 16.1 µM (inactive). Moreover, the GI50 in test [13] is > 100 µM (inactive); in test [15], 50.9 µM (inactive); in [16], > 100 µM (inactive); in [17], > 100 µM (inactive); in test [18] it was > 100 µM (inactive); in test [20], 20.4 µM (inactive).
Consider `CCOC(=O)N1CCN(c2ccc3c(C)cc(C)nc3n2)CC1`, for which the GI50 in [1], in [2], in test [3], in test [4], in [5] and in test [6] was > 100 µM (inactive) in each case. Besides, the GI50 in [7], in test [8], in [9], in test [10], in test [11] and in test [12] was > 100 µM (inactive) each time. The GI50 in test [13], in test [14], in test [15], in test [16], in test [17] and in [18] was > 100 µM (inactive) in each case. Further, the GI50 in [20] and in [19] was > 100 µM (inactive) each time.
On to `CC/C=C/C(CC)C/C(C)=C\[C@]1(CC)C[C@H](CC)[C@H](CC(=O)O)OO1` (some centres not stated), for which the GI50 was 0.259 µM (active) in test [1]; 0.105 µM (active) in test [2]; 0.451 µM (active) in test [3]; 0.682 µM (active) in test [4]; 0.885 µM (active) in test [5]; 0.0991 µM (active) in [6]. Further, the GI50 was 1.46 µM (inactive) in [7]; 1.89 µM (inactive) in [9]; 1.61 µM (inactive) in [10]; 0.171 µM (active) in test [11]; 0.178 µM (active) in test [12]; 1.29 µM (inactive) in test [14]. Also, the GI50 is 1.09 µM (active) in test [15]; 1.74 µM (inactive) in test [16]; 1.27 µM (inactive) in [17]; 0.352 µM (active) in [20]; 0.0157 µM (active) in test [19].
